The nature of the data set: Nonclinical IV and oral pharmacokinetics in dogs. In kind it is in vivo. As to conditions: dog, plasma.

The record followed here is US20160220569A1, “CDK4/6 Inhibitor Dosage Formulations For The Protection Of Hematopoietic Stem And Progenitor Cells During Chemotherapy” (G1 Therapeutics, Inc., priority 2015, published 2016).

SMILES strings stand for the structures.

Usually half-life stands for the time in which the quantity being followed falls by half. Low values mean fast loss, high ones slow loss. Usually bioavailability stands for dose-corrected exposure relative to a reference, in per cent. Higher therefore signals much systemic uptake. For `CN1CCN(c2ccc(Nc3ncc4cc5n(c4n3)C3(CCCCC3)CNC5=O)nc2)CC1` [Compound 1, 2′-((5-(4-methylpiperazin-1-yl)pyridin-2-yl)amino)-7′,8′-dihydro-6′H-spiro[cyclohexane-1,9′-pyrazino[1′,2′:1,5]pyrrolo[2,3-d]pyrimidin]-6′-one], the half-life (both sexes, after IV administration) is around 240 min. For the same molecule, the bioavailability was found to be 30.2% (oral 10 mg/kg) and 17.1% (oral 90 mg/kg).
